The subject of series [1] is rat. The conditions noted are these: Combined chronic toxicity/carcinogenicity, other, Oral, Feed, dose end: 104 week, group: systemic.
Series [2] concerns rat. The conditions noted are these: Subchronic oral toxicity in rodents, sprague dawley, Feed, dose end: 90 day, group: systemic.
The subject of series [3] is mouse. The note with it: Carcinogenicity, cd1, Oral, Feed, dose end: 78 week, group: systemic.
In series [4] the test system is rat. The conditions noted are these: Multigenerational reproductive toxicity study, sprague dawley, Oral, Feed, dose end: 2 generation.
In series [5] the test system is rat. The note with it: Subchronic oral toxicity in rodents, fischer, Water, dose end: 13 week, group: systemic.
For series [6], the system named is mouse. The conditions noted are these: Carcinogenicity, b6c3f1, Oral, Water, dose end: 2 year, group: systemic.
In series [7] the test system is mouse. The note with it: Subchronic oral toxicity in rodents, b6c3f1, Water, dose end: 13 week.
Series [8] has as its system rat. The note with it: Combined chronic toxicity/carcinogenicity; sprague dawley; Oral; [Not Specified]; dose end: 24 month; group: systemic; systemic / hematology / erythrocyte (rbc) count differential / erythrocyte (rbc).
Series [9] concerns mouse. The note with it: Carcinogenicity; cd1; Oral; Feed; dose end: 18 month; group: systemic; systemic / pathology microscopic / lung / adenoma.
For series [10], the system named is dog. The note with it: Subchronic oral toxicity in nonrodent, beagle, Feed, dose end: 13 week, group: systemic.
The test system of series [11] is dog. The note with it: Chronic toxicity; beagle; Oral; Feed; dose end: 52 week; group: systemic; systemic / clinical chemistry / alkaline phosphatase (alp/alk) / alkaline phosphatase (alp/alk) + systemic / organ weight / liver / absolute….
The mark [12] stands for this setting: systemic / pathology microscopic / liver / vacuolization.
[13] abbreviates: systemic / pathology microscopic / liver / vacuolization + systemic / pathology microscopic / liver / hyperplasia + systemic / pathology ….
Setting [14] is: systemic / clinical chemistry / alanine aminotransferase (alt/sgpt) / alanine aminotransferase (alt/sgpt) + systemic / clinical chemistry / ….
Setting [15] is: systemic / pathology microscopic / liver / hypertrophy + systemic / pathology microscopic / liver / necrosis.
Setting [16] is: systemic / pathology microscopic / liver / hypertrophy + systemic / pathology microscopic / liver / necrosis + systemic / pathology ….
Where [17] appears, read: group: offspring, systemic / in life observation / body weight / offspring (pup) weight + systemic / in life observation / body weight / offspring (pup) ….
Setting [18] is: group: parental, systemic / in life observation / body weight / body weight + systemic / in life observation / body weight / body weight gain + systemic / ….
The mark [19] stands for this setting: systemic / hematology / [other] / [other] + systemic / hematology / jolly bodies / jolly bodies + systemic / hematology / leukocyte (wbc) ….
[20] abbreviates: systemic / hematology / leukocyte (wbc) count differential / leukocyte (wbc) + systemic / hematology / lymphocyte / lymphocyte.
Setting [21] is: systemic / in life observation / body weight / body weight + systemic / organ weight / lung / absolute + systemic / pathology microscopic / ….
Where [22] appears, read: systemic / pathology microscopic / liver / angiectasis + systemic / pathology microscopic / liver / eosinophilic focus + systemic / ….
Where [23] appears, read: group: maternal, reproductive / reproductive performance / estrous cycle / abnormal.
[24] abbreviates: group: systemic, systemic / in life observation / body weight / body weight + systemic / in life observation / body weight / body weight gain + systemic / in….
Setting [25] is: systemic / clinical chemistry / albumin / albumin + systemic / clinical chemistry / albumin-globulin ratio / albumin-globulin ratio + ….

What is called LOAEL is the lowest dose or exposure tested at which an adverse effect was seen. As usually defined, the NOAEL is the highest dose or exposure tested at which no adverse effect was seen. In the case of `CCOC(=O)COc1cc(-c2nn(C)c(OC(F)F)c2Cl)c(F)cc1Cl` [Pyraflufen-ethyl], the LEL in the series with rat [1] (setting [12]) was determined as 86.7 mg/kg/day; in the series on rat [2] (systemic / organ weight / brain / relative to body weight) it was 456 mg/kg/day; in the series with mouse [3] (setting [15]), 98.3 mg/kg/day; with rat [4] (setting [17]) it was 721 mg/kg/day; in the series on rat [4] (setting [18]), 721 mg/kg/day. In addition, the lowest-observed-adverse-effect level (LOAEL) came to 86.7 mg/kg/day with rat [1] (setting [12]); 1490 mg/kg/day in the series with rat [2] (setting [14]); 98.3 mg/kg/day with mouse [3] (setting [15]); 721 mg/kg/day in the series on rat [4] (setting [17]); 721 mg/kg/day in the series on rat [4] (setting [18]). The NEL in the series with rat [1] (setting [13]) is 17.2 mg/kg/day; with rat [2] (setting [14]), 85.6 mg/kg/day; in the series on mouse [3] (setting [16]), 19.6 mg/kg/day; in the series on rat [4] (setting [17]), 70.8 mg/kg/day; in the series with rat [4] (setting [18]), 70.8 mg/kg/day. Besides, the NOAEL in the series on rat [1] (setting [13]) was 17.2 mg/kg/day; with rat [2] (setting [14]), 456 mg/kg/day; in the series with mouse [3] (setting [16]), 19.6 mg/kg/day; in the series with rat [4] (setting [17]), 70.8 mg/kg/day; with rat [4] (setting [18]) it was 70.8 mg/kg/day.
As for `CCOC(N)=O` [Urethane], the LOAEL in the series with rat [5] (setting [19]) was more than 525 mg/kg/day; in the series on mouse [6] (setting [21]) it was 0.325 mg/kg/day; in the series on mouse [7] (setting [23]) it was more than 1330 mg/kg/day; with mouse [7] (setting [24]), more than 1330 mg/kg/day. Further, the NOAEL in the series on rat [5] (setting [19]) is not below 525 mg/kg/day; with mouse [6] (setting [21]), 0.105 mg/kg/day; in the series with mouse [7] (setting [23]) it was not below 1330 mg/kg/day; in the series with mouse [7] (setting [24]) it was not below 1330 mg/kg/day. Moreover, the LEL in the series with rat [5] (setting [20]) came out at 11 mg/kg/day; in the series with mouse [6] (setting [22]), 0.035 mg/kg/day; in the series on mouse [7] (setting [23]) it was 147 mg/kg/day; in the series on mouse [7] (group: systemic, systemic / in life observation / body weight / body weight + systemic / in life observation / body weight / body weight gain + systemic / …), 147 mg/kg/day. The NEL was less than 11 mg/kg/day with rat [5] (setting [20]), less than 0.035 mg/kg/day with mouse [6] (setting [22]), 44 mg/kg/day with mouse [7] (setting [23]) and 44 mg/kg/day in the series on mouse [7] (setting [24]).
As to `CCC(C)(NC(=O)c1cc(Cl)c(C)c(Cl)c1)C(=O)CCl` (configuration not stated) [Zoxamide], the LEL with rat [8] came to 51 mg/kg/day; in the series with mouse [9] it was 1290 mg/kg/day; in the series with dog [10] (systemic / organ weight / liver / absolute + systemic / organ weight / liver / relative to body weight), 322 mg/kg/day; with dog [11], 255 mg/kg/day. For the same compound, the LOAEL was more than 1060 mg/kg/day in the series on rat [8], more than 1290 mg/kg/day with mouse [9], 1050 mg/kg/day in the series with dog [10] (setting [25]) and 255 mg/kg/day in the series with dog [11]. Also, the NEL with rat [8] is less than 51 mg/kg/day; in the series with mouse [9], 326 mg/kg/day; in the series with dog [10] (setting [25]) it was 61.8 mg/kg/day; in the series on dog [11], 50 mg/kg/day. Moreover, the NOAEL in the series with rat [8] was not below 1060 mg/kg/day; in the series with mouse [9], not below 1290 mg/kg/day; with dog [10] (setting [25]), 322 mg/kg/day; with dog [11], 50 mg/kg/day.

The values above are taken from EPA's ToxRefDB 2.
